Assay results as given in patent US9062124B2, “GIP-based mixed agonists for treatment of metabolic disorders and obesity” (priority 2008, dated 2015).
Where a SMILES comes first, the peptide text is derived from it. Bridges are numbered along the chain shown (N, C = ends).

Assays:
Format in all cases: cell-based
[1] = biological target: T1, GLP-1 receptor (Homo sapiens, UniProt P43220); assay: cAMP synthesis functional assay (firefly luciferase reporter in HEK293 cells), GLP-1 receptor; conditions: Table 1; relative to the native hormone of the indicated receptor
T1 construct: expressed in transfected cells; host or cells: HEK293

[2] = biological target: T2, glucagon receptor (Homo sapiens, UniProt P47871); assay: cAMP synthesis functional assay (firefly luciferase reporter in HEK293 cells), glucagon receptor; conditions: Table 1; for Glucagon Receptor relative activity: relative to the native hormone of the indicated receptor
T2 construct: expressed in transfected cells; host or cells: HEK293

[3] = biological target: T3, GIP receptor (Homo sapiens, UniProt P48546); assay: cAMP synthesis functional assay (firefly luciferase reporter in HEK293 cells), GIP receptor; conditions: Table 1; relative to the native hormone of the indicated receptor
T3 construct: expressed in transfected cells; host or cells: HEK293
T3 sequence (P48546 22-466): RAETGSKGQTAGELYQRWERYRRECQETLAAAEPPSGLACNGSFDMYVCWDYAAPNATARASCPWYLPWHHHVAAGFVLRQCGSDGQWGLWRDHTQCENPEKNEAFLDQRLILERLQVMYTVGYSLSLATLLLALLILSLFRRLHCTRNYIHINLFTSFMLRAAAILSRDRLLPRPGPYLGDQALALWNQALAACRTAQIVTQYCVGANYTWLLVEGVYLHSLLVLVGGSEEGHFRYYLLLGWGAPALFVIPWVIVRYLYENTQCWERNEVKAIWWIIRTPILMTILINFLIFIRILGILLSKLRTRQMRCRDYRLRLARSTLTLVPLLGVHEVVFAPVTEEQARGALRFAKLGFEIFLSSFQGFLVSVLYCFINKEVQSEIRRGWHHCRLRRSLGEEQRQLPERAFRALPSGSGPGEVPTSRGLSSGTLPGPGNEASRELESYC

T1 sequence (P43220 24-463, species assumed): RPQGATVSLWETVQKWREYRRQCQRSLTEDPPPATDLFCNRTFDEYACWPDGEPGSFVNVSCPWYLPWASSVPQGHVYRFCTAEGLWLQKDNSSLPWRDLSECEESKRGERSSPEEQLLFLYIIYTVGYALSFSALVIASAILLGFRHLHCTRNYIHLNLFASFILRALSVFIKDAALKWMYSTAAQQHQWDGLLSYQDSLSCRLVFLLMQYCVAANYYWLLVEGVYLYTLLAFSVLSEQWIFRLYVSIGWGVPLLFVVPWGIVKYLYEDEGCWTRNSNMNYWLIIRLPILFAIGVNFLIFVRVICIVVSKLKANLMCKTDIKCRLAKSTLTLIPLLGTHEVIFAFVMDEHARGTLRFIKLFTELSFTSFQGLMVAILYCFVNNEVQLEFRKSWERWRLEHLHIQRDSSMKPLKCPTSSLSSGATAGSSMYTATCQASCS
T2 sequence (P47871 26-477): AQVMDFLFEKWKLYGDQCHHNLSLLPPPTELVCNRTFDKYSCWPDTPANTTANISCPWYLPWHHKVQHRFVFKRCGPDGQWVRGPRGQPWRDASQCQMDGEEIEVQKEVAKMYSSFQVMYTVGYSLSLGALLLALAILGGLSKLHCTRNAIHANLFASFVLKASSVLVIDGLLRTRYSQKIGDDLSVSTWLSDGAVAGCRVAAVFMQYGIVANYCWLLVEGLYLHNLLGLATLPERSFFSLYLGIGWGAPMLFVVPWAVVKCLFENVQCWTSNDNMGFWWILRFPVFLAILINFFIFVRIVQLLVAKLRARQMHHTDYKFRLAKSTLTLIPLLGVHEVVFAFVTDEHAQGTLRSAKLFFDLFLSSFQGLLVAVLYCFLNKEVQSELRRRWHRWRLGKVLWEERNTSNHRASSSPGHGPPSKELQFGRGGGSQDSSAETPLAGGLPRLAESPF

Row | Compound | GLP-1 Receptor relative activity [1] [%] | Glucagon Receptor relative activity [2] [%] | GIP Receptor relative activity [3] [%] | EC50 ([2]; Glucagon Receptor EC50, nM) [nM]
1 | CC[C@H](C)[C@H](NC(=O)[C@H](CO)NC(=O)[C@H](Cc1ccc(O)cc1)NC(=O)[C@H](CC(=O)O)NC(=O)[C@H](CO)NC(=O)[C@@H](NC(=O)[C@H](Cc1ccccc1)NC(=O)[C@@H](NC(=O)CNC(=O)[C@H](CCC(=O)O)NC(=O)[C@H](C)NC(=O)[C@@H](N)Cc1ccc(O)cc1)[C@@H](C)O)[C@@H](C)CC)C(=O)N[C@@H](C)C(=O)N[C@@H](CCSC)C(=O)N[C@@H](CC(=O)O)C(=O)N[C@@H](CCCCN)C(=O)N[C@H](C(=O)N[C@@H](Cc1c[nH]cn1)C(=O)N[C@@H](CCC(N)=O)C(=O)N[C@@H](CCC(N)=O)C(=O)N[C@@H](CC(=O)O)C(=O)N[C@@H](Cc1ccccc1)C(=O)N[C@H](C(=O)N[C@@H](CC(N)=O)C(=O)N[C@@H](Cc1c[nH]c2ccccc12)C(=O)N[C@@H](CC(C)C)C(=O)N[C@@H](CC(C)C)C(=O)N[C@@H](C)C(=O)N[C@@H](CCC(N)=O)C(=O)N[C@@H](CCCCN)C(=O)NCC(=O)N[C@@H](CCCCN)C(=O)N[C@@H](CCCCN)C(=O)N[C@@H](CC(N)=O)C(=O)N[C@@H](Cc1c[nH]c2ccccc12)C(=O)N[C@@H](CC(C)C)C(=O)N[C@@H](CCCCN)C(=O)N[C@@H](Cc1c[nH]cn1)C(=O)N[C@@H](CC(N)=O)C(=O)N[C@H](C(=O)N[C@H](C(=O)N[C@@H](CCC(N)=O)C(N)=O)[C@@H](C)O)[C@@H](C)CC)C(C)C)[C@@H](C)CC [mt-99] | 0.00 | 0.00 | 100.00 | –
2 | CC[C@H](C)[C@H](NC(=O)[C@H](Cc1ccccc1)NC(=O)[C@H](CCC(=O)O)NC(=O)[C@@H]1CCCCNC(=O)CC[C@H](NC(=O)[C@H](CC(=O)O)NC(=O)[C@H](CC(C)C)NC(=O)[C@H](Cc2ccc(O)cc2)NC(=O)[C@H](CCCCN)NC(=O)[C@H](CO)NC(=O)[C@H](Cc2ccc(O)cc2)NC(=O)[C@H](CC(=O)O)NC(=O)[C@H](CO)NC(=O)[C@@H](NC(=O)[C@H](Cc2ccccc2)NC(=O)[C@@H](NC(=O)CNC(=O)[C@H](CCC(N)=O)NC(=O)[C@H](CO)NC(=O)[C@@H](N)Cc2c[nH]cn2)[C@@H](C)O)[C@@H](C)CC)C(=O)N[C@@H]([C@@H](C)CC)C(=O)N[C@@H](Cc2c[nH]cn2)C(=O)N[C@@H](CCC(N)=O)C(=O)N1)C(=O)N[C@@H](C)C(=O)N[C@@H](Cc1c[nH]c2ccccc12)C(=O)N[C@@H](CC(C)C)C(=O)N[C@@H](CCSC)C(=O)N[C@@H](CC(N)=O)C(=O)N[C@H](C(N)=O)[C@@H](C)O [mt-107] (H-HSQGTFISDYSKYLDEIHQKEFIAWLMNT-NH2; lactam 16-20; N-terminus assumed) | 0.16 | 185.71 | 0.74 | 0.07
3 | CC[C@H](C)[C@H](NC(=O)[C@H](Cc1ccccc1)NC(=O)[C@H](CCC(=O)O)NC(=O)[C@@H]1CCCCNC(=O)CC[C@H](NC(=O)[C@H](CC(=O)O)NC(=O)[C@H](CC(C)C)NC(=O)[C@H](C)NC(=O)[C@H](CCCCN)NC(=O)[C@H](CO)NC(=O)[C@H](Cc2ccc(O)cc2)NC(=O)[C@H](CC(=O)O)NC(=O)[C@H](CO)NC(=O)[C@@H](NC(=O)[C@H](Cc2ccccc2)NC(=O)[C@@H](NC(=O)CNC(=O)[C@H](CCC(N)=O)NC(=O)[C@H](CO)NC(=O)[C@@H](N)Cc2c[nH]cn2)[C@@H](C)O)[C@@H](C)CC)C(=O)N[C@@H]([C@@H](C)CC)C(=O)N[C@@H](Cc2c[nH]cn2)C(=O)N[C@@H](CCC(N)=O)C(=O)N1)C(=O)N[C@@H](C)C(=O)N[C@@H](Cc1c[nH]c2ccccc12)C(=O)N[C@@H](CC(C)C)C(=O)N[C@@H](CCSC)C(=O)N[C@@H](CC(N)=O)C(=O)N[C@H](C(N)=O)[C@@H](C)O [mt-108] (H-HSQGTFISDYSKALDEIHQKEFIAWLMNT-NH2; lactam 16-20; N-terminus assumed) | 12.50 | 68.42 | 0.52 | –
4 | CC[C@H](C)[C@@H]1NC(=O)[C@@H](NC(=O)[C@H](CC(=O)O)NC(=O)[C@H](CC(C)C)NC(=O)[C@H](Cc2ccc(O)cc2)NC(=O)[C@H](CCCCN)NC(=O)[C@H](CO)NC(=O)[C@H](Cc2ccc(O)cc2)NC(=O)[C@H](CC(=O)O)NC(=O)[C@H](CO)NC(=O)[C@@H](NC(=O)[C@H](Cc2ccccc2)NC(=O)[C@@H](NC(=O)CNC(=O)[C@H](CCC(N)=O)NC(=O)[C@H](CO)NC(=O)[C@@H](N)Cc2ccc(O)cc2)[C@@H](C)O)[C@@H](C)O)CCC(=O)NCCCC[C@@H](C(=O)N[C@@H](CC(=O)O)C(=O)N[C@@H](Cc2ccccc2)C(=O)N[C@H](C(=O)N[C@@H](CC(N)=O)C(=O)N[C@@H](Cc2c[nH]c3ccccc23)C(=O)N[C@@H](CC(C)C)C(=O)N[C@@H](CC(C)C)C(=O)N[C@@H](C)C(=O)N[C@@H](CCC(N)=O)C(N)=O)C(C)C)NC(=O)[C@H](CCC(N)=O)NC(=O)[C@H](Cc2c[nH]cn2)NC1=O [mt-109] (H-YSQGTFTSDYSKYLDEIHQKDFVNWLLAQ-NH2; lactam 16-20; N-terminus assumed) | 0.78 | 76.92 | 6.99 | –

Continued, values first:

Row | GLP-1 Receptor relative activity [1] [%] | Glucagon Receptor relative activity [2] [%] | GIP Receptor relative activity [3] [%] | EC50 ([2]; Glucagon Receptor EC50, nM) [nM] | Compound
5 | 0.04 | 0.29 | 84.48 | – | CC[C@H](C)[C@H](NC(=O)[C@H](CO)NC(=O)[C@H](Cc1ccc(O)cc1)NC(=O)[C@H](CC(=O)O)NC(=O)[C@H](CO)NC(=O)[C@@H](NC(=O)[C@H](Cc1ccccc1)NC(=O)[C@@H](NC(=O)CNC(=O)[C@H](CCC(=O)O)NC(=O)[C@H](C)NC(=O)[C@@H](N)Cc1ccc(O)cc1)[C@@H](C)O)[C@@H](C)CC)C(=O)N[C@@H](C)C(=O)N[C@@H](CCSC)C(=O)N[C@@H](CC(=O)O)C(=O)N[C@H]1CCC(=O)NCCCC[C@@H](C(=O)N[C@@H](CC(=O)O)C(=O)N[C@@H](Cc2ccccc2)C(=O)N[C@H](C(=O)N[C@@H](CC(N)=O)C(=O)N[C@@H](Cc2c[nH]c3ccccc23)C(=O)N[C@@H](CC(C)C)C(=O)N[C@@H](CC(C)C)C(=O)N[C@@H](C)C(=O)N[C@@H](CCC(N)=O)C(N)=O)C(C)C)NC(=O)[C@H](CCC(N)=O)NC(=O)[C@H](Cc2c[nH]cn2)NC(=O)[C@H]([C@@H](C)CC)NC1=O [mt-96] (H-YAEGTFISDYSIAMDEIHQKDFVNWLLAQ-NH2; lactam 16-20; N-terminus assumed)
6 | 1.27 | 3.19 | 2.81 | – | CC[C@H](C)[C@H](NC(=O)[C@H](CO)NC(=O)[C@H](Cc1ccc(O)cc1)NC(=O)[C@H](CC(=O)O)NC(=O)[C@H](CO)NC(=O)[C@@H](NC(=O)[C@H](Cc1ccccc1)NC(=O)[C@@H](NC(=O)CNC(=O)[C@H](CCC(=O)O)NC(=O)[C@H](C)NC(=O)[C@@H](N)Cc1c[nH]cn1)[C@@H](C)O)[C@@H](C)O)C(=O)N[C@@H](Cc1ccc(O)cc1)C(=O)N[C@@H](CCSC)C(=O)N[C@@H](CC(=O)O)C(=O)N[C@H]1CCC(=O)NCCCC[C@@H](C(=O)N[C@@H](CC(=O)O)C(=O)N[C@@H](Cc2ccccc2)C(=O)N[C@H](C(=O)N[C@@H](CC(N)=O)C(=O)N[C@@H](Cc2c[nH]c3ccccc23)C(=O)N[C@@H](CC(C)C)C(=O)N[C@@H](CC(C)C)C(=O)N[C@@H](C)C(=O)N[C@@H](CCC(N)=O)C(N)=O)C(C)C)NC(=O)[C@H](CCC(N)=O)NC(=O)[C@H](Cc2c[nH]cn2)NC(=O)[C@H]([C@@H](C)CC)NC1=O [mt-97] (H-HAEGTFTSDYSIYMDEIHQKDFVNWLLAQ-NH2; lactam 16-20; N-terminus assumed)
7 | 1.42 | 0.01 | 25.00 | – | CC[C@H](C)[C@H](NC(=O)[C@H](CO)NC(=O)[C@H](Cc1ccc(O)cc1)NC(=O)[C@H](CC(=O)O)NC(=O)[C@H](CO)NC(=O)[C@@H](NC(=O)[C@H](Cc1ccccc1)NC(=O)[C@@H](NC(=O)CNC(=O)[C@H](CCC(=O)O)NC(=O)[C@H](C)NC(=O)[C@@H](N)Cc1ccc(O)cc1)[C@@H](C)O)[C@@H](C)O)C(=O)N[C@@H](Cc1ccc(O)cc1)C(=O)N[C@@H](CCSC)C(=O)N[C@@H](CC(=O)O)C(=O)N[C@H]1CCC(=O)NCCCC[C@@H](C(=O)N[C@@H](CC(=O)O)C(=O)N[C@@H](Cc2ccccc2)C(=O)N[C@H](C(=O)N[C@@H](CC(N)=O)C(=O)N[C@@H](Cc2c[nH]c3ccccc23)C(=O)N[C@@H](CC(C)C)C(=O)N[C@@H](CC(C)C)C(=O)N[C@@H](C)C(=O)N[C@@H](CCC(N)=O)C(N)=O)C(C)C)NC(=O)[C@H](CCC(N)=O)NC(=O)[C@H](Cc2c[nH]cn2)NC(=O)[C@H]([C@@H](C)CC)NC1=O [mt-98] (H-YAEGTFTSDYSIYMDEIHQKDFVNWLLAQ-NH2; lactam 16-20; N-terminus assumed)
